1 compound from patent US20230137849A1, “USE OF A COMPOUND OF THE DIURETICS CLASS FOR TREATING CANCER” (AZELEAD, priority 2017, published 2023) can be followed below.

One series has as its system 4T1 cells. Put plainly: 4T1 cell migration test (scratch test). Format: cell-based, mouse. Particulars: lowest concentration 10 nM, t=24 h, FIG. 8. The protocol: The cell migration assays on the 4T1 cell line are carried out in vitro in 12-well plates on the 4T1 cell line. The cells are maintained in DMEM culture medium supplemented with 10% calf serum (FCS) and incubated at 37° C. and 5% CO2. The cell monolayer is injured with a 10 μ pipette tip. The medium is aspirated and replaced by a medium containing the compounds to be tested at the concentrations described. The wells are imaged using a microscope and the injured surface is repaired at the indicated times to highlight the cell anti-migratory power of the tested chemical compounds. The average of the measurements obtained is compared with the control wells: (average value of the compounds treated/average value of the controls)*100=% of the average value.
In order to validate the anti-migratory potential of althiazide, we carry out a “scratch test” on 4T1 cells in culture according to the cell migration test protocol on the 4T1 cell line described in the Materials and Methods section. This test is used to evaluate the migratory power of a chemical compound on cells in culture. […]
The area of the injured area is measured for each well and the percentage of migration is calculated under each condition.

Another series concerns VIMENTIN
Put plainly: q-RT-PCR expression of EMT markers in MDA-MB-231 cells under hypoxia: VIMENTIN
Format: cell-based, human. Particulars: althiazide 100 μM, hypoxic conditions (1% O2), vs control, FIG. 11. On the procedure:
(§1) The cell cultures are carried out on human breast cancer epithelial cell lines MDA-MB-231 (HTB-26™), resulting from metastases present in a pleural effusion of a patient with a mammary adenocarcinoma. This line is used as a triple negative cancer cell model (no expression of ER-type nuclear estrogen receptors, nuclear progesterone receptors or overexpression of the oncogene encoding HER2 protein (Human Epidermal Growth factor Receptor-2).
(§2) The cells were cultured in DMEM medium (Eurobio, Fance) supplemented with 10% fetal calf serum (FCS) (Eurobio, Fance) at 37° C., 5% CO2. The medium was changed every 3 days.
(§3) The cells were placed in a controlled atmosphere at 1% oxygen 24 hours before the application of the different treatments.
(§4) The expression of the mRNAs is measured by the q-RT-PCR method. The cells were seeded at the density of 500,000 cells/well in 6-well plates. After 24 hours at 37° C., 5% CO2 and 1% O2, the medium was renewed and added the various treatments. RNA was isolated using TRI Reagent® (sigma), assayed and retro-transcribed into complementary DNA using the PrimeScript RT Reagent Kit (Takara). The expression levels of the mRNA of the genes of interest were determined by quantitative PCR (LightCycler® 480 Instrument II) with the primers listed in Table 2: […]
(§5) The results are calculated using the Delta Delta Ct (Δ ΔCt) method.

For another series, the system named is E-CADHERIN
The experiment in a line: q-RT-PCR expression of EMT markers in MDA-MB-231 cells under hypoxia: E-CADHERIN
Particulars: althiazide 100 μM, hypoxic conditions (1% O2), vs control, FIG. 11. It counts as cell-based, human. On the procedure: as §1, §2, §3, §4, §5

A short description of series [1]: Solubilization of althiazide and enantiomers without DMSO. It counts as physicochemical. Particulars: no DMSO. The protocol:
Solubilization of althiazide and enantiomers was achieved by solubilization in a solvent of 95% 1M Tris pH 10.8 and supplemented with 5% pure ethanol.
Althiazide and enantiomers are resuspended at a concentration of 2 mg/ml. Each of the solutions is vortexed for 30 seconds and then placed in an ultrasound bath for a sonication of 5min; this operation is repeated once. The dissolution is complete despite the absence of DMSO.
The solubilization of althiazide and enantiomers was also obtained by solubilization in a solution consisting of a mixture of 3.7% of NaHCO3, 0.2M and 21% of Na2CO3 0.2M at pH 10.6 and supplemented with pure water. Althiazide and enantiomers are resuspended at a concentration of 2.5 mg/ml. Each of the solutions is vortexed for 30 seconds and then placed in an ultrasound bath for a sonication of 1 min. The dissolution is complete despite the absence of DMSO.

As for `C=CCSCC1Nc2cc(Cl)c(S(N)(=O)=O)cc2S(=O)(=O)N1` (racemic) [althiazide], the “decrease in cell migration” value in the series with 4T1 cells came to 40%. In addition, the “change in expression of VIMENTIN” value with VIMENTIN is reported as −22%. For the same compound, in the series on E-CADHERIN, the “increase in E-CADHERIN expression” value was 73%. For the same compound, the dissolution entry in series [1] (2 mg/ml in 95% 1M Tris pH 10.8 + 5% pure ethanol, vortex and sonication) was “complete”; in series [1] (2.5 mg/ml in 3.7% NaHCO3 0.2M + 21% Na2CO3 0.2M at pH 10.6 and pure water), “complete”.
